The values that follow come from patent US20240132431A1, “METHOD FOR ALKYLATING ACIDIC FUNCTIONAL GROUP” (Chugai Seiyaku Kabushiki Kaisha, priority 2021, published 2024).

This test has as its target T1, Bcl-2 protein (Recombinant Human Bcl-2 Protein) (Homo sapiens, UniProt P10415).
T1 construct: purchased Novus NBP2-34889
The test can be described thus: Binding evaluation of mixture library compounds to Bcl-2 using AS-MS (affinity selection mass spectrometry). Particulars: for ASMS ratio (%) n = 1 / ASMS ratio (%) n = 2: ASMS Ratio(%)=(A−C)/B×100; for ASMS ratio (%) n = 1: replicate n = 1; for ASMS ratio (%) n = 2: replicate n = 2. In a few lines: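 ASMS Ratio (%) was calculated as (A−C)/B×100, where A is the protein sample after SEC, B the protein-free sample without SEC and C the protein-free sample after SEC. Each compound was at […] in a 1200-member pool with 20 μM Bcl-2, incubated 1 h at 23° C.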

Setting [1] is: AS-MS, mixture of 1200 compounds, Bcl-2.
The mark [2] stands for this setting: AS-MS on the mixture of 1200 library compounds.

T1 sequence (P10415 whole entry): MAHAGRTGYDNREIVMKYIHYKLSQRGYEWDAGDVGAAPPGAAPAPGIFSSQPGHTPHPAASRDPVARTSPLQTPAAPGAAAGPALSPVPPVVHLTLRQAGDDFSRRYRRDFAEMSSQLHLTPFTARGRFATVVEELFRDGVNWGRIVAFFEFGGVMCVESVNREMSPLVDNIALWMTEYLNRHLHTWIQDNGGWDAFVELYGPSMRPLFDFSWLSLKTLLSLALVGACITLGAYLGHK

For the molecule `CCOc1cncc(-c2cc(CN3CCN(c4ccc(C(=O)NS(=O)(=O)c5ccc(NCCSc6ccccc6)c(C(F)(F)F)c5)cc4)CC3)cc(OCC)c2)c1` [B2R056-01, 4-[4-[[3-Ethoxy-5-(5-ethoxypyridin-3-yl)phenyl]methyl]piperazin-1-yl]-N-[4-(2-phenylsulfanylethylamino)-3-(trifluoromethyl)phenyl]sulfonylbenzamide], under “n = 2”, the “ASMS ratio (%)” value was −63.9%. For the molecule `CCOc1cccc(-c2ccc(CN3CCN(c4ccc(C(=O)NCC(F)(F)F)cc4)CC3)cc2C)c1` [B1K047-01], under setting [1], the “ASMS ratio (%) n = 1” value is 3.3% and the “ASMS ratio (%) n = 2” value came out at 0.5%. For `CCOc1cccc(-c2ccc(CN3CCN(c4ccc(C(=O)NCC56CC7CC(CC(C7)C5)C6)cc4)CC3)cc2C)c1` [B1A047-01, N-(1-Adamantylmethyl)-4-[4-[[4-(3-ethoxyphenyl)-3-methylphenyl]methyl]piperazin-1-yl]benzamide], in that order: 3.2% and 2.5%. As for `CCOc1cccc(-c2ccc(CN3CCN(c4ccc(C(=O)NS(=O)(=O)C(C)(C)C)nn4)CC3)c3ccccc23)c1` [B2L091-01, N-tert-Butylsulfonyl-6-[4-[[4-(3-ethoxyphenyl)naphthalen-1-yl]methyl]piperazin-1-yl]pyridazine-3-carboxamide], the “ASMS ratio (%)” value amounted to 0.0% (n = 1) and 0.0% (n = 2).

Consider `CCOc1cccc(-c2ccc(C(=O)N3CCN(c4ccc(C(=O)NS(=O)(=O)CC56CC7CC(CC(C7)C5)C6)cc4)CC3)cc2C)c1` [B2A025-01, N-(1-Adamantylmethylsulfonyl)-4-[4-[4-(3-ethoxyphenyl)-3-methylbenzoyl]piperazin-1-yl]benzamide], for which, for the setting “AS-MS, mixture library, Bcl-2”, the “ASMS ratio (%) n = 1” value was found to be 4.6% and the “ASMS ratio (%) n = 2” value is −2.7%. Take `CCOc1cccc(-c2ccc(CN3CCN(c4ccc(C(=O)N(C)CC56CC7CC(CC(C7)C5)C6)nn4)CC3)c(CC)c2)c1` [B3A075-01, N-(1-Adamantylmethyl)-6-[4-[[4-(3-ethoxyphenyl)-2-ethylphenyl]methyl]piperazin-1-yl]-N-methylpyridazine-3-carboxamide]: under setting [2], the “ASMS ratio (%) n = 1” value is reported as −5.8% and the “ASMS ratio (%) n = 2” value is given as −16.0%. For `CCOc1cccc(-c2ccc(CN3CCN(c4ccc(C(=O)N(CC)CC)nn4)CC3)c(CC)c2)c1` [B4J075-01, 6-[4-[[4-(3-Ethoxyphenyl)-2-ethylphenyl]methyl]piperazin-1-yl]-N,N-diethylpyridazine-3-carboxamide], for the setting “AS-MS, mixture library, Bcl-2”, the “ASMS ratio (%) n = 1” value is on record as 0.0% and the “ASMS ratio (%) n = 2” value is 0.0%.

For `CCOc1cccc(-c2ccc(C(=O)N3CCN(c4ccc(C(=O)N(CC)CC)nn4)CC3)cc2F)c1` [B4J005-01, 6-[4-[4-(3-Ethoxyphenyl)-3-fluorobenzoyl]piperazin-1-yl]-N,N-diethylpyridazine-3-carboxamide], under setting [2], the “ASMS ratio (%) n = 1” value is −0.4% and the “ASMS ratio (%) n = 2” value stood at 2.1%. For `CCOc1cccc(C#Cc2cncc(C(=O)N3CCN(c4ccc(C(=O)N(C)CC56CC7CC(CC(C7)C5)C6)cc4)CC3)c2)c1` [B3A031-01, N-(1-Adamantylmethyl)-4-[4-[5-[2-(3-ethoxyphenyl)ethynyl]pyridine-3-carbonyl]piperazin-1-yl]-N-methylbenzamide], in that order: 8.4% and −15.2%.

For the molecule `CCOc1cncc(C#Cc2cncc(C(=O)N3CCN(c4ccc(C(=O)N(C)CC56CC7CC(CC(C7)C5)C6)nn4)CC3)c2)c1` [B3A010-01, N-(1-Adamantylmethyl)-6-[4-[5-[2-(5-ethoxypyridin-3-yl)ethynyl]pyridine-3-carbonyl]piperazin-1-yl]-N-methylpyridazine-3-carboxamide], under setting [2], the “ASMS ratio (%) n = 1” value turned out to be 0.0% and the “ASMS ratio (%) n = 2” value is reported as 0.0%. For the molecule `CCOc1cccc(-c2cc(CN3CCN(c4ccc(C(=O)Nc5ccc(OC)cc5)nn4)CC3)cc(OCC)c2)c1` [B1O081-01, 6-[4-[[3-Ethoxy-5-(3-ethoxyphenyl)phenyl]methyl]piperazin-1-yl]-N-(4-methoxyphenyl)pyridazine-3-carboxamide], under setting [2], the “ASMS ratio (%) n = 1” value was 3.2% and the “ASMS ratio (%) n = 2” value is given as −2.2%. With `CCOc1cncc(-c2cnn(-c3cc(C(=O)N4CCN(c5ccc(C(=O)NS(=O)(=O)c6ccc(NCCSc7ccccc7)c([N+](=O)[O-])c6)nn5)CC4)cc(C(F)(F)F)c3)c2)c1` [B2Q022-01, 6-[4-[3-[4-(5-Ethoxypyridin-3-yl)pyrazol-1-yl]-5-(trifluoromethyl)benzoyl]piperazin-1-yl]-N-[3-nitro-4-(2-phenylsulfanylethylamino)phenyl]sulfonylpyridazine-3-carboxamide], under “AS-MS, mixture library, Bcl-2”, the “ASMS ratio (%) n = 1” value is given as 13.8% and the “ASMS ratio (%) n = 2” value stood at 23.6%.

As for `CCOc1cccc(-c2csc(C(=O)N3CCN(c4ccc(C(=O)NS(C)(=O)=O)cc4)CC3)c2)c1` [B2I023-01, 4-[4-[4-(3-Ethoxyphenyl)thiophene-2-carbonyl]piperazin-1-yl]-N-methylsulfonylbenzamide], under “AS-MS, mixture library, Bcl-2”, the “ASMS ratio (%) n = 1” value amounted to 0.0% and the “ASMS ratio (%) n = 2” value came out at 0.0%. For “6-[4-[5-[2-(3-Ethoxyphenyl)ethynyl]pyridine-3-carbonyl]piperazin-1-yl]-N-propylpyridazine-3-carboxamide [B1M001-01]”, under setting [1], the “ASMS ratio (%) n = 1” value amounted to 0.0% and the “ASMS ratio (%) n = 2” value was found to be 0.0%. Take `CCOc1cccc(-c2ccc(C(=O)N3CCN(c4ccc(C(=O)NS(=O)(=O)C(C)(C)C)nn4)CC3)c3ccccc23)c1` [B2L013-01, N-tert-Butylsulfonyl-6-[4-[4-(3-ethoxyphenyl)naphthalene-1-carbonyl]piperazin-1-yl]pyridazine-3-carboxamide]: the “ASMS ratio (%)” value is, setting by setting: (n = 1) 0.0%; (n = 2) 0.0%. Take `CCOc1cccc(-c2ccc(CN3CCN(c4ccc(C(=O)NCC(F)(F)F)nn4)CC3)c(CC)c2)c1` [B1K075-01, 6-[4-[[4-(3-Ethoxyphenyl)-2-ethylphenyl]methyl]piperazin-1-yl]-N-(2,2,2-trifluoroethyl)pyridazine-3-carboxamide]: under setting [1], the “ASMS ratio (%) n = 1” value is reported as 1.4% and the “ASMS ratio (%) n = 2” value is given as −3.8%. `CCOc1cncc(C#Cc2cc(C(=O)N3CCN(c4ccc(C(=O)NS(=O)(=O)CC56CC7CC(CC(C7)C5)C6)nn4)CC3)cc(C(F)(F)F)c2)c1` [B2A020-01, N-(1-Adamantylmethylsulfonyl)-6-[4-[3-[2-(5-ethoxypyridin-3-yl)ethynyl]-5-(trifluoromethyl)benzoyl]piperazin-1-yl]pyridazine-3-carboxamide]: under “AS-MS, mixture library, Bcl-2”, the “ASMS ratio (%) n = 1” value came out at 3.4% and the “ASMS ratio (%) n = 2” value was 8.9%.

On to `CCOc1cccc(-c2ccc(C(=O)N3CCN(c4ccc(C(=O)N(CC)CC)cc4)CC3)c3ccccc23)c1` [B4J035-01, 4-[4-[4-(3-Ethoxyphenyl)naphthalene-1-carbonyl]piperazin-1-yl]-N,N-diethylbenzamide], for which, under setting [2], the “ASMS ratio (%) n = 1” value amounted to 4.1% and the “ASMS ratio (%) n = 2” value is on record as 1.5%. For `CCOc1cncc(-c2cc(C(=O)N3CCN(c4ccc(C(=O)N(C)CC56CC7CC(CC(C7)C5)C6)cc4)CC3)cc(C(C)(C)C)c2)c1` [B3A038-01, N-(1-Adamantylmethyl)-4-[4-[3-tert-butyl-5-(5-ethoxypyridin-3-yl)benzoyl]piperazin-1-yl]-N-methylbenzamide], in that order: 2.5% and −2.9%.
